# Measured values published in the supplement of paper PMC11061612.
# Key:
# Test in all cases: combination Emax (second highest fraction inhibited in the dose matrix, 72 h); higher = more inhibition; extreme values may be limits of the assay
# [1] = test system: NCI-H522 (Lung Adenocarcinoma)
# Summary of the method: (§1)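 Cell lines in DMEM/F12 or RPMI with 10% FBS were plated in 1536-well plates, held 24 hours at 37°C, 5% CO2, then given two-drug dose matrices for 72 hours (DMSO typically 0.2%). Viability was read by CellTiter-Glo 2.0 luminescence and scaled as inhibition from 0 (vehicle wells) to 1 (blank wells). Combination Emax is the second-highest inhibition in the matrix; Bliss excess is observed combination effect minus expected EA + EB − EA·EB, EA and EB being single-agent effects.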
# [2] = test system: MOG-G-UVW (Low Grade Glioma)
# Summary of the method: as §1
# [3] = test system: HCC1937 (Breast Carcinoma)
# Summary of the method: as §1
# [4] = test system: OACM5-1 (Esophageal Adenocarcinoma)
# Summary of the method: as §1
# [5] = test system: HCC2998 (Colorectal Carcinoma)
# Summary of the method: as §1
# [6] = test system: NCI-H1993 (Lung Adenocarcinoma)
# Summary of the method: as §1
# [7] = test system: CADO-ES1 (Ewing's Sarcoma)
# Summary of the method: as §1
# [8] = test system: NCI-H2122 (Lung Adenocarcinoma)
# Summary of the method: as §1
# [9] = test system: NCI-H1092 (Small Cell Lung Carcinoma)
# Summary of the method: as §1
# [10] = test system: MDA-MB-453 (Breast Carcinoma)
# Summary of the method: as §1
# [11] = test system: SKN (Other Solid Carcinomas)
# Summary of the method: as §1
# Hey (Ovarian Carcinoma) = test system: Hey (Ovarian Carcinoma)
# Summary of the method: as §1
# [12] = test system: COLO-668 (Small Cell Lung Carcinoma)
# Summary of the method: as §1
# [13] = test system: LC-1-sq (Squamous Cell Lung Carcinoma)
# Summary of the method: as §1
# [14] = test system: A4-Fuk (B-Lymphoblastic Leukemia)
# Summary of the method: as §1
# SK-N-AS (Neuroblastoma) = test system: SK-N-AS (Neuroblastoma)
# Summary of the method: as §1
# [15] = test system: ALL-SIL (T-Lymphoblastic Leukemia)
# Summary of the method: as §1
# [16] = test system: DU-145 (Prostate Carcinoma)
# Summary of the method: as §1
# [17] = test system: SW872 (Other Solid Carcinomas)
# Summary of the method: as §1
Structure (SMILES),combination Emax [1],combination Emax [2],combination Emax [3],combination Emax [4],combination Emax [5],combination Emax [6],combination Emax [7],combination Emax [8],combination Emax [9],combination Emax [10],combination Emax [11],combination Emax (Hey (Ovarian Carcinoma)),combination Emax [12],combination Emax [13],combination Emax [14],combination Emax (SK-N-AS (Neuroblastoma)),combination Emax [15],combination Emax [16],combination Emax [17]
"CC1(C)CCC(CN2CCN(c3ccc(C(=O)NS(=O)(=O)c4ccc(NCC5CCOCC5)c([N+](=O)[O-])c4)c(Oc4cnc5[nH]ccc5c4)c3)CC2)=C(c2ccc(Cl)cc2)C1 [Venetoclax] + Cc1cc2ncnn2cc1Nc1ncc2c(n1)n(C1CCOCC1)c(=O)n2C [AZD7648] (first compound max 1 µM, 7x7, partner max 10 µM)",0.112,0.416,0.244,0.495,0.109,0.541,0.703,0.284,0.317,0.198,0.257,0.328,0.447,0.242,0.667,0.295,0.658,0.137,0.158
"CC1(C)CCC(CN2CCN(c3ccc(C(=O)NS(=O)(=O)c4ccc(NCC5CCOCC5)c([N+](=O)[O-])c4)c(Oc4cnc5[nH]ccc5c4)c3)CC2)=C(c2ccc(Cl)cc2)C1 [Venetoclax] + CN(C)CCCOc1ccc(-c2ccc3ncc4c(c3c2)n(C2CCOCC2)c(=O)n4C)cn1 [AZD0156] (first compound max 1 µM, 7x7, partner max 1 µM)",0.141,0.726,0.283,0.262,0.105,0.413,0.692,0.212,0.252,0.169,0.235,0.216,0.452,0.192,0.659,0.17,0.628,0.0977,0.172
"CC1(C)CCC(CN2CCN(c3ccc(C(=O)NS(=O)(=O)c4ccc(NCC5CCOCC5)c([N+](=O)[O-])c4)c(Oc4cnc5[nH]ccc5c4)c3)CC2)=C(c2ccc(Cl)cc2)C1 [Venetoclax] + Cn1cnc2c(F)c(Nc3ccc(Br)cc3Cl)c(C(=O)NOCCO)cc21 [Selumetinib] (first compound max 1 µM, 7x7, partner max 3 µM)",0.0772,0.413,0.264,0.336,0.683,0.436,0.632,0.679,0.253,0.15,0.136,0.55,0.787,0.236,0.712,0.647,0.679,0.184,0.105
"COc1cccc(OCCCN)c1-c1cc(Nc2cnc(C#N)cn2)n[nH]1 [Prexasertib] + CN(C)CCCOc1ccc(-c2ccc3ncc4c(c3c2)n(C2CCOCC2)c(=O)n4C)cn1 [AZD0156] (first compound max 1 µM, 7x7, partner max 1 µM)",0.385,0.88,0.537,0.624,0.969,0.826,0.956,0.975,0.74,0.926,0.421,0.82,0.758,0.953,0.885,1,0.958,0.624,0.863
"CC1(C)CCC(CN2CCN(c3ccc(C(=O)NS(=O)(=O)c4ccc(NCC5CCOCC5)c([N+](=O)[O-])c4)c(Oc4cnc5[nH]ccc5c4)c3)CC2)=C(c2ccc(Cl)cc2)C1 [Venetoclax] + C1CN(CCC1(C(=O)N[C@@H](CCO)C2=CC=C(C=C2)Cl)N)C3=NC=NC4=C3C=CN4 [Capivasertib] (first compound max 1 µM, 7x7, partner max 3 µM)",0.133,0.455,0.373,0.592,0.298,0.5,0.667,0.498,0.354,0.463,0.42,0.24,0.469,0.198,0.724,0.203,0.687,0.2,0.152
"CCc1c2c(nc3ccc(O)cc13)-c1cc3c(c(=O)n1C2)COC(=O)[C@]3(O)CC [SN-38] + O=C(c1cc(Cc2n[nH]c(=O)c3ccccc23)ccc1F)N1CCN(C(=O)C2CC2)CC1 [Olaparib] (first compound max 0.3 µM, 7x7, partner max 10 µM)",0.389,0.825,,0.796,,0.635,0.987,,0.54,0.746,0.596,0.72,1,0.455,0.96,0.76,1,0.813,1
"CC1(C)CCC(CN2CCN(c3ccc(C(=O)NS(=O)(=O)c4ccc(NCC5CCOCC5)c([N+](=O)[O-])c4)c(Oc4cnc5[nH]ccc5c4)c3)CC2)=C(c2ccc(Cl)cc2)C1 [Venetoclax] + CCN(CCO)CCCOc1ccc2c(Nc3cc(CC(=O)Nc4cccc(F)c4)[nH]n3)ncnc2c1 [AZD2811] (first compound max 1 µM, 7x7, partner max 1 µM)",0.217,0.636,0.264,0.421,0.121,0.232,0.755,0.702,0.39,0.211,0.242,0.266,0.618,0.226,0.748,0.434,1,0.157,0.142
"CC1(C)CCC(CN2CCN(c3ccc(C(=O)NS(=O)(=O)c4ccc(NCC5CCOCC5)c([N+](=O)[O-])c4)c(Oc4cnc5[nH]ccc5c4)c3)CC2)=C(c2ccc(Cl)cc2)C1 [Venetoclax] + C[C@@H]1COCCN1C2=NC(=NC(=C2)C3(CC3)[S@](=N)(=O)C)C4=C5C=CNC5=NC=C4 [AZD6738] (first compound max 1 µM, 7x7, partner max 10 µM)",0.161,0.852,0.587,0.678,0.779,0.582,0.952,0.947,0.458,0.761,0.491,0.774,0.877,0.672,0.775,0.896,1,0.537,0.459
"CC1(C)CCC(CN2CCN(c3ccc(C(=O)NS(=O)(=O)c4ccc(NCC5CCOCC5)c([N+](=O)[O-])c4)c(Oc4cnc5[nH]ccc5c4)c3)CC2)=C(c2ccc(Cl)cc2)C1 [Venetoclax] + C[C@@H](Nc1cc(F)cc(F)c1)c1cc(C(=O)N(C)C)cc2c(=O)cc(N3CCOCC3)oc12 [AZD8186] (first compound max 1 µM, 7x7, partner max 3 µM)",0.0652,0.45,0.271,0.495,0.145,0.296,0.625,0.174,0.384,0.703,0.456,0.139,0.438,0.187,0.655,0.0826,0.637,0.153,0.167
"COc1cccc(OCCCN)c1-c1cc(Nc2cnc(C#N)cn2)n[nH]1 [Prexasertib] + C=CCn1c(=O)c2cnc(Nc3ccc(N4CCN(C)CC4)cc3)nc2n1-c1cccc(C(C)(C)O)n1 [AZD1775] (first compound max 1 µM, partner max 1 µM)",0.676,0.943,0.584,0.802,0.984,0.906,0.946,0.984,0.756,0.909,0.488,0.837,0.881,0.986,0.906,1,1,0.691,0.933
"CC1(C)CCC(CN2CCN(c3ccc(C(=O)NS(=O)(=O)c4ccc(NCC5CCOCC5)c([N+](=O)[O-])c4)c(Oc4cnc5[nH]ccc5c4)c3)CC2)=C(c2ccc(Cl)cc2)C1 [Venetoclax] + C=CCn1c(=O)c2cnc(Nc3ccc(N4CCN(C)CC4)cc3)nc2n1-c1cccc(C(C)(C)O)n1 [AZD1775] (first compound max 1 µM, partner max 1 µM)",0.289,0.933,0.406,0.558,0.599,0.629,0.68,0.98,0.696,0.769,0.556,0.667,0.943,0.689,0.883,0.953,1,0.349,0.557
"CCc1c2c(nc3ccc(O)cc13)-c1cc3c(c(=O)n1C2)COC(=O)[C@]3(O)CC [SN-38] + CN(C)CCCOc1ccc(-c2ccc3ncc4c(c3c2)n(C2CCOCC2)c(=O)n4C)cn1 [AZD0156] (first compound max 0.3 µM, 7x7, partner max 1 µM)",0.43,0.854,0.487,0.763,0.867,0.696,1,0.843,0.323,0.772,0.412,0.732,0.961,0.442,0.923,0.737,0.995,0.742,0.98
